These results are taken from ChEMBL document CHEMBL2321830 (J Med Chem, 2013).

What is called IC50 is the concentration needed to halve the response being measured.

Where only a bound is given, the exact number is not on record here.

The target of one assay is T1, Aldo-keto reductase family 1 member C2 (Homo sapiens, UniProt P52895).
T1 sequence (P52895 whole entry): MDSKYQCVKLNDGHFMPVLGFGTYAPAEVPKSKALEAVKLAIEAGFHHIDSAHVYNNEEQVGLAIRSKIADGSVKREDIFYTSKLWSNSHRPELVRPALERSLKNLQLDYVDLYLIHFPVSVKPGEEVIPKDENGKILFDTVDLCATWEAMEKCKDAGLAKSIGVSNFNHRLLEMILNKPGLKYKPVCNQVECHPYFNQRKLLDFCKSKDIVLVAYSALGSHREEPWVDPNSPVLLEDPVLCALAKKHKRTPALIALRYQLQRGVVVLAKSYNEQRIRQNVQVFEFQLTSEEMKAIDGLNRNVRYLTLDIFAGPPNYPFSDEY
Description: Inhibition of human recombinant AKR1C2-mediated NADP+-dependent oxidation of S-(+)-1,2,3,4-tetrahydro-1-naphthol.
As for `COc1ccc2c(c1)c(CC(=O)O)c(C)n2C(=O)c1ccc(F)cc1`, the IC50 was 61 µM.

As for `COc1ccc2c(c1)c(CC(=O)NS(C)(=O)=O)c(C)n2C(=O)c1ccc(Cl)cc1`, the IC50 is 65.4 µM.

Regarding `COc1ccc(C(=O)n2c(C)c(CC(=O)O)c3cc(OC)ccc32)cc1`, the IC50 came out at 45.1 µM.

Take `COc1ccc2c(c1)c(CC(=O)O)c(C)n2C(=O)c1cccc(C(F)(F)F)c1`: the IC50 was found to be 19.5 µM.

Consider `Cc1c(CC(=O)O)c2cc(F)ccc2n1C(=O)c1cccc(C(F)(F)F)c1`, for which the IC50 is 7.84 µM.

Regarding `COC(=O)Cc1c(C)n(C(=O)c2ccc(C)cc2)c2ccc(OC)cc12`, the IC50 was determined as 43.6 µM.

For the molecule `COC(=O)Cc1c(C)n(C(=O)c2ccc(C(F)(F)F)cc2)c2ccc(OC)cc12`, the half-maximal inhibitory concentration (IC50) was more than 100 µM.

Take `COC(=O)Cc1c(C)n(C(=O)c2ccc(OC)cc2)c2ccc(OC)cc12`: the IC50 is more than 100 µM.

Turning to `Cc1c(CCC(=O)O)c2cc(F)ccc2n1C(=O)c1ccc(Cl)cc1`, the IC50 worked out at 13.5 µM.

Take `COc1ccc2c(c1)cc(C)n2C(=O)c1ccc(Cl)cc1`: the IC50 is 24 µM.

Take `COC(=O)Cc1cn(C(=O)c2ccc(Cl)cc2)c2ccc(OC)cc12`: the IC50 is more than 100 µM.

With `COc1ccc2c(c1)c(CC(=O)O)cn2C(=O)c1ccc(F)cc1`, the IC50 was more than 100 µM.

With `COc1ccc2c(c1)c(CC(=O)O)cn2C(=O)c1ccc(C(F)(F)F)cc1`, the IC50 was more than 100 µM.

For `COc1ccc2c(c1)c(CC(=O)O)cn2C(=O)c1cccc(C(F)(F)F)c1`, the IC50 came out at 100 µM.

For the molecule `O=C(O)Cc1cn(C(=O)c2ccc(Cl)cc2)c2ccc(F)cc12`, the IC50 was determined as 23.3 µM.

As for `COc1ccc2c(c1)c(CC(=O)NS(C)(=O)=O)cn2C(=O)c1ccc(Cl)cc1`, the IC50 was determined as 16.7 µM.

Take `COc1ccc2c(c1)c(CC(=O)NS(=O)(=O)c1ccc(C)cc1)cn2C(=O)c1ccc(Cl)cc1`: the IC50 was 42.7 µM.

Turning to `COc1ccc2c(c1)c(CC(=O)NS(=O)(=O)c1ccc3ccccc3c1)cn2C(=O)c1ccc(Cl)cc1`, the IC50 was found to be 16.8 µM.

For `COc1ccc2c(c1)c(CC(=O)NS(=O)(=O)c1ccccc1C)cn2C(=O)c1ccc(Cl)cc1`, the IC50 turned out to be 15.3 µM.

Take `COc1ccc2c(c1)c(CC(=O)NS(=O)(=O)c1ccc(C(F)(F)F)cc1)cn2C(=O)c1ccc(Cl)cc1`: the 50% inhibitory concentration (IC50) worked out at 38.2 µM.

Consider `COc1ccc2c(c1)c(CC(=O)NS(=O)(=O)c1ccc(OC(F)(F)F)cc1)cn2C(=O)c1ccc(Cl)cc1`, for which the IC50 worked out at 59.4 µM.

In the case of `COc1ccc2c(c1)c(CC(=O)NS(=O)(=O)c1ccc(Cl)s1)cn2C(=O)c1ccc(Cl)cc1`, the IC50 was 15.1 µM.

On to `COc1ccc2c(c1)c(CC(=O)NS(=O)(=O)c1ccc(C(C)=O)cc1)cn2C(=O)c1ccc(Cl)cc1`, for which the IC50 was 17.3 µM.

`COc1ccc2c(c1)c(CC(=O)NS(=O)(=O)c1ccc(C(C)C)cc1)cn2C(=O)c1ccc(Cl)cc1`: the concentration for half-maximal inhibition (IC50) is 7.9 µM.

The target in a further assay is T2, Aldo-keto reductase family 1 member C3 (Homo sapiens, UniProt P42330).
T2 sequence (P42330 whole entry): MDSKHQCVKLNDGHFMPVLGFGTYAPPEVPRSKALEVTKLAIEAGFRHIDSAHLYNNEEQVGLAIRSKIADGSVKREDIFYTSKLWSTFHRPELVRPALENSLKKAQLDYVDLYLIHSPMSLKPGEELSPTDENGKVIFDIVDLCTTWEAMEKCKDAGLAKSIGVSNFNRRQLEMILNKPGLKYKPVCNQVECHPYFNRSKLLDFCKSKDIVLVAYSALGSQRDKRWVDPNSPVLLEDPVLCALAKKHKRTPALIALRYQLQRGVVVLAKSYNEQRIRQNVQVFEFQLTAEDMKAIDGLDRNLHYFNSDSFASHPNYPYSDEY
Description: Inhibition of human recombinant AKR1C3-mediated NADP+-dependent oxidation of S-(+)-1,2,3,4-tetrahydro-1-naphthol.
For `COc1ccc2c(c1)c(CC(=O)O)c(C)n2C(=O)c1ccc(F)cc1`, the IC50 stood at 0.71 µM.

On to `COc1ccc2c(c1)c(CC(=O)NS(C)(=O)=O)c(C)n2C(=O)c1ccc(Cl)cc1`, for which the IC50 stood at 2.24 µM.

For `COc1ccc(C(=O)n2c(C)c(CC(=O)O)c3cc(OC)ccc32)cc1`, the IC50 is 0.14 µM.

On to `COc1ccc2c(c1)c(CC(=O)O)c(C)n2C(=O)c1cccc(C(F)(F)F)c1`, for which the IC50 was determined as 2.44 µM.

On to `Cc1c(CC(=O)O)c2cc(F)ccc2n1C(=O)c1cccc(C(F)(F)F)c1`, for which the half-maximal inhibitory concentration (IC50) is 2.23 µM.

On to `COC(=O)Cc1c(C)n(C(=O)c2ccc(C)cc2)c2ccc(OC)cc12`, for which the half-inhibitory concentration (IC50) was 7.54 µM.

For the molecule `COC(=O)Cc1c(C)n(C(=O)c2ccc(C(F)(F)F)cc2)c2ccc(OC)cc12`, the IC50 was determined as 15.7 µM.

`COC(=O)Cc1c(C)n(C(=O)c2ccc(OC)cc2)c2ccc(OC)cc12`: the IC50 worked out at 7.59 µM.

For `Cc1c(CCC(=O)O)c2cc(F)ccc2n1C(=O)c1ccc(Cl)cc1`, the IC50 was 0.29 µM.

Take `COc1ccc2c(c1)cc(C)n2C(=O)c1ccc(Cl)cc1`: the IC50 was 3.56 µM.

Turning to `COC(=O)Cc1cn(C(=O)c2ccc(Cl)cc2)c2ccc(OC)cc12`, the IC50 stood at 11.3 µM.

On to `COc1ccc2c(c1)c(CC(=O)O)cn2C(=O)c1ccc(F)cc1`, for which the 50% inhibitory concentration (IC50) stood at 4.96 µM.

As for `COc1ccc2c(c1)c(CC(=O)O)cn2C(=O)c1ccc(C(F)(F)F)cc1`, the IC50 worked out at 1.08 µM.

For `COc1ccc2c(c1)c(CC(=O)O)cn2C(=O)c1cccc(C(F)(F)F)c1`, the IC50 was 5.21 µM.

Take `O=C(O)Cc1cn(C(=O)c2ccc(Cl)cc2)c2ccc(F)cc12`: the IC50 was determined as 0.5 µM.

In the case of `COc1ccc2c(c1)c(CC(=O)NS(C)(=O)=O)cn2C(=O)c1ccc(Cl)cc1`, the IC50 worked out at 12 µM.

As for `COc1ccc2c(c1)c(CC(=O)NS(=O)(=O)c1ccc(C)cc1)cn2C(=O)c1ccc(Cl)cc1`, the IC50 was 12.4 µM.

In the case of `COc1ccc2c(c1)c(CC(=O)NS(=O)(=O)c1ccc3ccccc3c1)cn2C(=O)c1ccc(Cl)cc1`, the IC50 was 1.19 µM.

Take `COc1ccc2c(c1)c(CC(=O)NS(=O)(=O)c1ccccc1C)cn2C(=O)c1ccc(Cl)cc1`: the IC50 stood at 8.82 µM.

For `COc1ccc2c(c1)c(CC(=O)NS(=O)(=O)c1ccc(C(F)(F)F)cc1)cn2C(=O)c1ccc(Cl)cc1`, the IC50 amounted to 2.07 µM.

For `COc1ccc2c(c1)c(CC(=O)NS(=O)(=O)c1ccc(OC(F)(F)F)cc1)cn2C(=O)c1ccc(Cl)cc1`, the IC50 worked out at 2.65 µM.

For `COc1ccc2c(c1)c(CC(=O)NS(=O)(=O)c1ccc(Cl)s1)cn2C(=O)c1ccc(Cl)cc1`, the IC50 is 3.73 µM.

As for `COc1ccc2c(c1)c(CC(=O)NS(=O)(=O)c1ccc(C(C)=O)cc1)cn2C(=O)c1ccc(Cl)cc1`, the 50% inhibitory concentration (IC50) stood at 2.09 µM.

Regarding `COc1ccc2c(c1)c(CC(=O)NS(=O)(=O)c1ccc(C(C)C)cc1)cn2C(=O)c1ccc(Cl)cc1`, the 50% inhibitory concentration (IC50) was found to be 6.34 µM.
